In paper PMC6515380 (2019):

Columns and labels:
[1] = system: wtTel26 (DNA, G4) TTAGGGTTAGGGTTAGGGTTAGGGTT; test: 1D 1H NMR titration; conditions: 25 mM potassium phosphate, 70 mM KCl, pH 7, 25 °C, 100–250 µM DNA
[2] = system: wtTel26 (DNA, G4) TTAGGGTTAGGGTTAGGGTTAGGGTT; test: fluorescence titration; conditions: 100 mM K+, 25 °C, pH 7; for Kd: 0.2 μM ligand titrated with DNA; for ΔGbindo(expt): 0.2 μM ligand, ΔG obtained from experimentally determined Kd
[3] = medium exchange, peak broadening, less specific

binding [1, 3]	Kd [2]	ΔGbindo(expt) [2]	binding ([1]; slow exchange, well-defined complex)	SMILES
yes	0.740 ± 0.0206 µM	-8.41 ± 0.01 kcal/mol	–	COc1cc2c(cc1OC)-c1cc3ccc(OC)c(OC)c3c[n+]1CC2
–	0.016 ± 0.0016 µM	-10.70 ± 0.02 kcal/mol	yes	COc1cc2c(cc1OC)-c1cc3ccc4c(c3c[n+]1CC2)OCO4
yes	1.994 ± 0.0461 µM	-7.82 ± 0.06 kcal/mol	–	COc1ccc2cc3[n+](cc2c1OC)CCc1cc2c(cc1-3)OCO2
yes	0.333 ± 0.0057 µM	-8.89 ± 0.1 kcal/mol	–	c1c2c(cc3c1OCO3)-c1cc3ccc4c(c3c[n+]1CC2)OCO4
